Test [1] deals with T1, Fructose-bisphosphate aldolase, glycosomal (Trypanosoma brucei brucei) (UniProt P07752).
T1 sequence (whole entry): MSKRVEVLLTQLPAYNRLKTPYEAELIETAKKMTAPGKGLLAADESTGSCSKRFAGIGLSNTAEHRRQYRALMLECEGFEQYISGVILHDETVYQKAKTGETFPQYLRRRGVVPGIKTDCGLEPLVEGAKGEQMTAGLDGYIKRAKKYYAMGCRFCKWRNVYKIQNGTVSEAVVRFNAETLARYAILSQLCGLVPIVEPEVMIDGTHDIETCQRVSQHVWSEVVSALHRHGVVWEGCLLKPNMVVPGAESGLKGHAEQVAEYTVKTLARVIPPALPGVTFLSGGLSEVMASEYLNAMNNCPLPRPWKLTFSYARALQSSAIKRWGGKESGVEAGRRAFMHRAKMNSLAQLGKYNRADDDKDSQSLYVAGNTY
Nature of the test: Competitive inhibition of His-tagged recombinant Trypanosoma brucei fructose bis-phosphate aldolase expressed in Escherichia coli by double-reciprocal plot analysis.

Test [2] has as its target T2, Fructose-bisphosphate aldolase, glycosomal (Trypanosoma brucei brucei, UniProt P07752).
T2 sequence (P07752 whole entry): T1 sequence (whole entry)
Nature of the test: Inhibition of His-tagged recombinant Trypanosoma brucei fructose bis-phosphate aldolase expressed in Escherichia coli using FBP as substrate after 5 to 15 mins.

Test [3] deals with T3, Fructose-bisphosphate aldolase A (Oryctolagus cuniculus, UniProt P00883).
T3 sequence (P00883 whole entry): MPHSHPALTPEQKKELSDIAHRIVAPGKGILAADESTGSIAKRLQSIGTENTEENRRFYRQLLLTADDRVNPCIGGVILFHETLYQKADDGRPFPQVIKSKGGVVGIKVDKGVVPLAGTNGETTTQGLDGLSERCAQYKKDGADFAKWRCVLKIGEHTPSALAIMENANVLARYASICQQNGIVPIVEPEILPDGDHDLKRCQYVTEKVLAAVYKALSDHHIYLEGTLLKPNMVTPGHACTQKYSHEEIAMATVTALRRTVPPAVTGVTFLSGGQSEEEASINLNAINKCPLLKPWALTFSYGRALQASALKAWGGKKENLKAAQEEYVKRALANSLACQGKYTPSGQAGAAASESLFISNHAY
Kind of test: Inhibition of rabbit muscle FBA assessed as inhibition of FBP cleavage by spectrophotometry.

Molecules are shown by their SMILES. Active and inactive are the calls of the source. No cut-off for these calls is given here.

On to `O=P(O)(O)OC[C@@H](O)[C@@H](O)[C@H](O)[C@@H](COP(=O)(O)O)OCCCc1ccccc1`, for which the “inhibition mode (competitive)” value in test [1] was “Active”. For the same molecule, the results for the half-inhibitory concentration (IC50) in test [2] and in test [3] were 31 µM and 21 µM, respectively.
Regarding `O=P(O)(O)OC[C@@H](O)[C@@H](O)[C@H](O)[C@H](O)COP(=O)(O)O`, the IC50 was 9.4 µM in test [2] and 8 µM in test [3].
With `CCO[C@H](COP(=O)(O)O)[C@@H](O)[C@H](O)[C@H](O)COP(=O)(O)O`, the “inhibition mode (competitive)” value in test [1] is “Active”. Also, the IC50 in test [2] came out at 51 µM; in test [3], 64 µM.
Take `CCCCC[C@@](O)(COP(=O)(O)O)[C@@H](O)[C@H](O)[C@H](O)COP(=O)(O)O`: in test [1], the “inhibition mode (competitive)” value was “Active”. The IC50 in test [2] was 15 µM; in test [3], 17 µM.
As to `O=P(O)(O)OC[C@@H](O)[C@@H](O)[C@H](O)[C@@](O)(CCCc1ccccc1)COP(=O)(O)O`, in test [1], the “inhibition mode (competitive)” value is “Active”. The IC50 worked out at 56 µM in test [2] and 137 µM in test [3].
As for `O=C(COP(=O)(O)O)[C@@H](O)[C@H](O)[C@H](O)COP(=O)(O)O` (mixture of isomers), the IC50 was found to be 10 µM in test [2] and 13 µM in test [3].
In the case of `CC[C@@](O)(COP(=O)(O)O)[C@@H](O)[C@H](O)[C@H](O)COP(=O)(O)O`, the “inhibition mode (competitive)” value in test [1] was “Active”. The IC50 amounted to 130 µM in test [2] and 244 µM in test [3].
On to `CCCCCO[C@H](COP(=O)(O)O)[C@@H](O)[C@H](O)[C@H](O)COP(=O)(O)O`, for which, in test [1], the “inhibition mode (competitive)” value was “Active”. Further, the half-maximal inhibitory concentration (IC50) is 117 µM in test [2] and 157 µM in test [3].
As to `CO[C@H](COP(=O)(O)O)[C@@H](O)[C@H](O)[C@H](O)COP(=O)(O)O`, the “inhibition mode (competitive)” value in test [1] was “Active”. Moreover, the values for the IC50 in test [2] and in test [3] were 2 µM and 7.5 µM, respectively.

Usually IC50 stands for the point on the concentration scale where inhibition reaches its midpoint.

Values taken from ChEMBL document CHEMBL2016560, “Mannitol Bis-phosphate Based Inhibitors of Fructose 1,6-Bisphosphate Aldolases” (ACS Med Chem Lett, 2011).
